According to the OPERA property sets (Mansouri et al. 2018):
In brackets after ≈: the same amount, converted by molar mass.

details: not given

Q: Which logP does the source give for O=[N+]([O-])c1cc(Cl)cc(Cl)c1 here?
A: 3.09

Q: Which logP does the source give for CCC(Oc1ccc(Cl)cc1C)C(=O)O (configuration not stated) here?
A: 3.47

Q: With Clc1cccc(O[Si]23OCCN(CCO2)CCO3)c1 as the compound, how does the logP read?
A: 0.46

Q: For C=CCOc1ccccc1OCC(CNC(C)C)OC(=O)C1CC1 (configuration not stated), which logP is on record?
A: 3.01

Q: For COCOCCn1cnc2c(=N)n(C)c(=O)[nH]c21, which logP is on record?
A: -1.52

Q: Which logP does the source give for COP(=S)(OC)Oc1ccc(SC)cc1 here?
A: 3.74

Q: For Oc1cccc(-c2ccccc2O)c1, which logP is on record?
A: 4.06

Q: With O=C(CCl)N1CCOCC1 as the compound, how does the logP read?
A: -0.6

Q: With CCCOC(=O)NCCCN(C)C as the compound, how does the logP read?
A: 1.12

Q: With CCN(CC)CCCC(C)N=c1cc2n(-c3ccc(Cl)cc3)c3ccccc3nc-2cc1Nc1ccc(Cl)cc1 (configuration not stated) as the compound, how does the logP read?
A: 7.92

Q: For CCC(C)CO (configuration not stated), which logP is on record?
A: 1.29

Q: With ClC1=C(Cl)C2(Cl)C3C(Cl)C=CC3C1(Cl)C2(Cl)Cl (configuration not stated) as the compound, how does the logP read?
A: 6.1

Q: For N=C(N)NN=Cc1ccc(Br)cc1, which logP is on record?
A: 1.3

Q: With c1ccc2c(c1)ccc1cc3ccc4ccccc4c3cc12 as the compound, how does the logP read?
A: 6.54

Q: Which logP does the source give for c1ccc2c(c1)Cc1cc3ccccc3cc1-2 here?
A: 5.77

Q: With CC(C)c1ccc(NC(=O)CN(CC(=O)O)CC(=O)O)cc1Br as the compound, how does the logP read?
A: -0.08

Q: Which logP does the source give for O=c1c(Cl)c(Cl)cnn1-c1ccccc1 here?
A: 2.09

Q: For ClCC1(C(Cl)Cl)C2CC(Cl)(Cl)C1(C(Cl)Cl)C(Cl)C2Cl (configuration not stated), which logP is on record?
A: 5.96

Q: Which logP does the source give for CCCCCCCCC(C)=O here?
A: 3.73

Q: Which logP does the source give for CC1=CC(=NNC(=N)N)C=CC1=NNC(N)=S here?
A: 1.66

Q: For N#CC(C#N)=Cc1ccc(I)o1, which logP is on record?
A: 2.42

Q: For CC(C)(C)NCC(O)c1cc(O)cc(O)c1 (configuration not stated), which logP is on record?
A: 0.9

Q: Which logP does the source give for COc1ccc(C=NNC(=N)N)cc1 here?
A: 0.29

Q: With CCNc1ncc(-c2ccncc2)cc1C#N as the compound, how does the logP read?
A: 2.33

Q: Which logP does the source give for Nc1cc([N+](=O)[O-])ccc1Cl here?
A: 2.23

Q: With CCOC1OC2OC3(C)CCC4C(C)C(OC5OC(C(=O)O)C(O)C(O)C5O)CC(C1C)C24OO3 (configuration not stated) as the compound, how does the logP read?
A: 0.61

Q: For CCN1CC=C(c2ccccc2)CC1, which logP is on record?
A: 3.18

Q: For CNCCC=C1c2ccccc2CCc2ccccc21, which logP is on record?
A: 4.51

Q: With COc1ccc2c(c1)OCC1(O)c3cc4c(cc3OC21)OCO4 (configuration not stated) as the compound, how does the logP read?
A: 2.58

Q: With Cc1c(CNc2ccc(Cl)cc2)cnc2nc(N)nc(N)c12 as the compound, how does the logP read?
A: 2.03

Q: For CCCCC(=O)CCCC, which logP is on record?
A: 2.88

Q: With Cc1cc(O)cc(C)c1Cl as the compound, how does the logP read?
A: 3.27

Q: For CNS(=O)(=O)c1ccc(C)cc1, which logP is on record?
A: 1.28

Q: With COC(=O)C1=C(C)NC(C)=C(C(=O)O[C@@H]2CCCN(Cc3ccccc3)C2)[C@@H]1c1cccc([N+](=O)[O-])c1 as the compound, how does the logP read?
A: 4.61

Q: With COc1c2occc2cc2ccc(=O)oc12 as the compound, how does the logP read?
A: 2

Q: With CCCCc1c(C)nc(NCC)nc1O as the compound, how does the logP read?
A: 2.22

Q: For CCOP(=S)(OCC)Oc1cc(C)nc(C(C)C)n1, which solubility is on record?
A: 131 µM (≈ 40 µg/mL)

Q: For N=C(N)NN=Cc1cccs1, which logP is on record?
A: 0.98

same assay, conditions: 20 °C

Q: For COCCO[Si](CCCl)(OCCOC)OCCOC, which solubility is on record?
A: 78900 µM (≈ 25000 µg/mL)

Q: For O=c1c(Cl)c(Cl)cnn1-c1ccccc1, which solubility is on record?
A: 415 µM (≈ 100 µg/mL)

same assay, conditions: 23 °C

Q: With CCOc1cc(OP(=S)(OC)OC)nc(CC)n1 as the compound, how does the solubility read?
A: 137 µM (≈ 40 µg/mL)

same assay, conditions: 23.0 °C

Q: Which log10 OH rate constant (cm³/molecule/s) does the source give for CC(=O)C1CC=C(C)CC1 (configuration not stated) here?
A: -9.89

Q: With C=C1CCC=C(C)CC[C@@H]2[C@@H]1CC2(C)C as the compound, how does the log10 OH rate constant (cm³/molecule/s) read?
A: -9.7

Q: With CC1=CC[C@@H]2[C@H]3[C@@H](C(C)C)CC[C@]2(C)[C@@H]13 as the compound, how does the log10 OH rate constant (cm³/molecule/s) read?
A: -10

same assay, conditions: 24.0 °C

Q: For c1ccc2ncccc2c1, which log10 OH rate constant (cm³/molecule/s) is on record?
A: -10.9

same assay, conditions: 25 °C

Q: For Cl[C@H]1[C@H](Cl)[C@@H](Cl)[C@@H](Cl)[C@H](Cl)[C@H]1Cl (racemic), which solubility is on record?
A: 9.42 µM (≈ 2.74 µg/mL)

Q: Which solubility does the source give for CN(C)c1ccc(N=Nc2ccc(N)cc2)cc1 here?
A: 25.5 µM (≈ 6.12 µg/mL)

Q: Which solubility does the source give for CC1(C)[C@H]2CC[C@](C)(C2)[C@H]1O here?
A: 5370 µM (≈ 828 µg/mL)

Q: Which solubility does the source give for ClC1=C(Cl)C2(Cl)C3C(Cl)C=CC3C1(Cl)C2(Cl)Cl (configuration not stated) here?
A: 0.482 µM (≈ 0.18 µg/mL)

Q: Which solubility does the source give for c1ccc2c(c1)ccc1cc3ccc4ccccc4c3cc12 here?
A: 0.0037 µM (≈ 0.00103 µg/mL)

Q: For CC(=O)C=CC1=C(C)CCCC1(C)C, which solubility is on record?
A: 879 µM (≈ 169 µg/mL)

Q: With CCOC(=O)COc1ccc(Cl)cc1 as the compound, how does the solubility read?
A: 3800 µM (≈ 815 µg/mL)

Q: Which solubility does the source give for OCC(Br)CBr (configuration not stated) here?
A: 239000 µM (≈ 52000 µg/mL)

Q: Which solubility does the source give for O=C(O)CC1CCCCC1 here?
A: 20300 µM (≈ 2880 µg/mL)

Q: For O=[N+]([O-])c1ccc(N=Nc2ccc(O)cc2)cc1, which solubility is on record?
A: 16 µM (≈ 3.89 µg/mL)

Q: With c1ccc2ncccc2c1 as the compound, how does the solubility read?
A: 47300 µM (≈ 6110 µg/mL)

Q: For CS, which solubility is on record?
A: 320000 µM (≈ 15400 µg/mL)

same assay, conditions: 25.0 °C

Q: For Cl[C@H]1[C@H](Cl)[C@@H](Cl)[C@@H](Cl)[C@H](Cl)[C@H]1Cl (racemic), which log10 OH rate constant (cm³/molecule/s) is on record?
A: -12.8

Q: Which log10 OH rate constant (cm³/molecule/s) does the source give for COCC(C)O (configuration not stated) here?
A: -10.7

Q: With CSC(=O)N(C)C as the compound, how does the log10 OH rate constant (cm³/molecule/s) read?
A: -10.9

Q: Which log10 OH rate constant (cm³/molecule/s) does the source give for CCCCBr here?
A: -11.6

Q: For Clc1c(Cl)c(Cl)c(Cl)c(Cl)c1Cl, which log10 OH rate constant (cm³/molecule/s) is on record?
A: -13.6
